Values of other authors as cited in patent publication US9134323B2, “Antibody that specifically binds to an epitope in the tureet region of a human Kir channel” (priority 2009, dated 2015).
Where no end group is shown, it is not given here.

Legend:
[1] = target: T1, Kir2.1 wild-type channels (Homo sapiens, UniProt P63252); settings: applied to the outside of cells expressing the wild-type channels; 10 mM
T1 sequence (P63252 1-427): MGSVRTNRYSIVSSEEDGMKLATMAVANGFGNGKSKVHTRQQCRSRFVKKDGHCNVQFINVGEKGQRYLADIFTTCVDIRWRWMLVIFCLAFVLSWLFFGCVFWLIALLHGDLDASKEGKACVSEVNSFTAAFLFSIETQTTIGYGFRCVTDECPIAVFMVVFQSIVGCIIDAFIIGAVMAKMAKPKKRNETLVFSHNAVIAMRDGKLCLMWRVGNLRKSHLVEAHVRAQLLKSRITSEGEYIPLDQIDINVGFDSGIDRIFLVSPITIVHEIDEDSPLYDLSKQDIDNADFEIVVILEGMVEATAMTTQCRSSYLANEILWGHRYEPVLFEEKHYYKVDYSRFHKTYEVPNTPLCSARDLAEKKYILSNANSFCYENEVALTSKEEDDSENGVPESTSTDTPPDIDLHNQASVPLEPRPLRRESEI

Kir1.1 channels = target: T2, Kir1.1 channels (Homo sapiens, UniProt P48048)
T2 sequence (P48048 1-391): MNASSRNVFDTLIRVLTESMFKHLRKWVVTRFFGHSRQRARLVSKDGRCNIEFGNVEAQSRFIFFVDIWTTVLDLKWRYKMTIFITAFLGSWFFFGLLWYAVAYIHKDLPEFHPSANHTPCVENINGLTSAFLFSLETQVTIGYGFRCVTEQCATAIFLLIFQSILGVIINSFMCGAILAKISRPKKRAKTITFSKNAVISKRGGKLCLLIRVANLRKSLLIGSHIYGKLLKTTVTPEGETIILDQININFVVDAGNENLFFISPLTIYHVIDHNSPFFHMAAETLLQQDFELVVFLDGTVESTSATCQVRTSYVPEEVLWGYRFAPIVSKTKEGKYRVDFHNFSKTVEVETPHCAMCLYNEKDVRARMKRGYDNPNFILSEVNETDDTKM

Kir3.4 channels = target: T3, Kir3.4 channels (Homo sapiens, UniProt P48544+P48549)
T3 sequence (P48544 1-419): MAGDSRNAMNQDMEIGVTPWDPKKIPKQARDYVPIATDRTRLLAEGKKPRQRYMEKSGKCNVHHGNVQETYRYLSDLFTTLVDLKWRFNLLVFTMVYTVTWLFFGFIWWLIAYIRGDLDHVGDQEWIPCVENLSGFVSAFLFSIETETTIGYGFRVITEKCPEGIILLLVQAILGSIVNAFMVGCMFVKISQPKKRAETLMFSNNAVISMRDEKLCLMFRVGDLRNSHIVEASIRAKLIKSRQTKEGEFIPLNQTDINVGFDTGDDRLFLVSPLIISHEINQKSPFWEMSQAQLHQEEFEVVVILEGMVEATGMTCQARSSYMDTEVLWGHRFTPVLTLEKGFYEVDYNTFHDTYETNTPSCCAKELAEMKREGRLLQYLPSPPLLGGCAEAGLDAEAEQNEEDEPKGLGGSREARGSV
T3 sequence (P48549 1-501): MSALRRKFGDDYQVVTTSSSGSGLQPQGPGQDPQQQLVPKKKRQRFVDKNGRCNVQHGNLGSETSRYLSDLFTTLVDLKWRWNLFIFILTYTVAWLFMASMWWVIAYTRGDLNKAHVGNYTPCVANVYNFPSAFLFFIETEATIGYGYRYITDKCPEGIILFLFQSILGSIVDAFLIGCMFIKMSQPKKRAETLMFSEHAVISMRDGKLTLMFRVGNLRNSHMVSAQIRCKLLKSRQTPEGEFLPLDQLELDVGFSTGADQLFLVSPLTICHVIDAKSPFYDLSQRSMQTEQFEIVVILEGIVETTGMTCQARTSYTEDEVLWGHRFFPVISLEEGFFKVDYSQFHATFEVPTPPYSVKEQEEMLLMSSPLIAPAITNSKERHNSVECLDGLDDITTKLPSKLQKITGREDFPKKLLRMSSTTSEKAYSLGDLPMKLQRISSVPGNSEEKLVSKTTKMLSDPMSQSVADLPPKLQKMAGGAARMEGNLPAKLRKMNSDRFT

[2] = system: Kir2.1 channel, variable sequence mutated to be Kir3.4-like; settings: turret variable sequence mutated to be Kir3.4-like

Question: Which effect on currents [1] does the source give for N[C@@H](CCC(=O)N[C@@H](CS)C(=O)NCC(=O)O)C(=O)O [reduced glutathione] here?
Answer: did not affect currents

Question: Which effect on currents [1] does the source give for O[C@H](CS)[C@H](O)CS (racemic) [DTT, Dithiothreitol] here?
Answer: did not affect currents

Question: For δ-dendrotoxin, which “inhibition of Kir1.1 channels” value (Kir1.1 channels) is on record?
Answer: inhibits

Question: What about the “single channel conductance in the blocked state” value (Kir1.1 channels; blocked state, reduced rather than inhibited all the way) of the same compound?
Answer: about 10%

Question: What does the source list for “tertiapin (ALCNCNRIIIPHMCWKKCGKK; ends and bridges not checked; cysteine pairing not given here; UniProt P56587 1-21, looked up)”?
Answer: inhibition of Kir1.1 channels (Kir1.1 channels): inhibits; inhibition of Kir3.4 channels (Kir3.4 channels): inhibits; sensitivity of mutated Kir2.1 channel to the toxin [2]: becomes sensitive
